These results are taken from article PMC10891265 (2024).

The assay deals with ATP aptamer (Apt-POSS) (DNA, aptamer) CCACCACGGTGGTGGTGGTTGTGGTGC
Nature of the assay: UV absorption at 260 nm after centrifugation, Langmuir fit. Particulars: PBS, 30 min.

In the case of `Nc1ccn([C@@H]2O[C@H](COP(=O)(O)OP(=O)(O)OP(=O)(O)O)[C@@H](O)[C@H]2O)c(=O)n1`, the binding result (control nucleotide, captured less than ATP, ATP series 1 μM to 2 mM) is given as “weak”. Consider `Nc1ncnc2c1ncn2[C@@H]1O[C@H](COP(=O)(O)OP(=O)(O)OP(=O)(O)O)[C@@H](O)[C@H]1O`, for which, where the note is “0.1 mg particle/mL, aptamer on nanoparticles, apparent”, the K was determined as 46.5 ± 18.5 µM.
